According to paper PMC11172460 (International Journal of Molecular Sciences, 2024):
Read-outs that look alike come from different tables or passages of the source.

Experiments:
[1] = same tristearin carriers; cited from earlier work
[2] = rodents and humans, ranging from a few minutes to 30 min; cited from earlier work
[3] = rat brain homogenates, cited from earlier work; for amount hydrolyzed: within 6 h
[4] = rat liver homogenates, cited from earlier work
[5] = design: method as in PMID 10669289; conditions: 1-octanol/water; cited from earlier work
differentiated N2a cells [6] = assay: MTT assay of H2O2-altered viability (neuroprotection); assay type: cell-based, mouse; conditions: 100 µM H2O2 for 24 h
Experimental: (§1) N2a cells were seeded on T75 flasks and grown in Dulbecco’s Modified Eagle Medium (DMEM) containing Glutamax, supplemented with 100 μg/mL streptomycin, 100 IU/mL penicillin, and 10% fetal bovine serum (FBS) in a humidified 5% CO2 atmosphere at 37 °C. After two passages by trypsinization, cells were seeded at a density of 5 × 10^3 cells/well in 12-well plates with 2 mL of DMEM or at a density of 5 × 10^2 cells/well in 96-well plates with 0.2 mL of DMEM, depending on the study (see below). For neural differentiation, N2a cells were allowed to adhere and proliferate in wells for 4 days; then, after washing once with serum-free DMEM, differentiating medium composed of DMEM containing 1% HS and 20 μM all-trans-retinoic acid (atRA) was added in both the seeding conditions, up to 6 days of differentiation, after which the cells were used for the experiments.
The MTT assay was also carried out to determine the neuroprotective effect of Fer-Ger on H2O2-induced cell oxidative stress in N2a neuronal cells. Briefly, N2a cells (5 × 10^2) were seeded and differentiated into 96-well plates, as reported above. Then, cells were incubated with 1 µM and 5 µM Fer-Ger dissolved in DMEM containing 0.5% HS for 1 h in a humidified 5% CO2 atmosphere at 37 °C. The experimental design therefore included cells incubated with only culture medium as a control and cells incubated for 24 h with 100 µM H2O2 as a damage-inducing agent after 1 h of preincubation in the absence or presence of 1 µM or 5 µM Fer-Ger. Then, 20 μL of MTT (5 mg/mL) was added into the 200 µL of the incubation medium. Four hours later, the medium containing MTT was aspirated and replaced by 100 µL of dimethyl sulfoxide (DMSO) solubilization agent for 1 h at 37 °C in an orbital shaker incubator. Finally, the absorbance of each well was measured at 570 nm using a microtiter plate reader (Sunrise® Microplate Reader, Tecan Trading AG, Männedorf, Switzerland).

differentiated N2a cells [7] = assay: DCFH-DA assay of intracellular ROS production; assay type: cell-based, mouse
Experimental: as §1
The potential antioxidant effect of Fer-Ger was evaluated according to the original method of Wang and Joseph. In this method, the nonpolar 2′,7′-dichlorofluorescin diacetate (DCFH-DA) enters the intact cells and is hydrolyzed by intracellular esterases to nonfluorescent DCFH carboxylate anion, which remains entrapped and becomes the high fluorescent dichlorofluorescin (DCF) after oxidation by free radicals generated by a stressor, such as H2O2. Therefore, H2O2-induced intracellular ROS production was measured in N2a cells by a florescence intensity assay following exposure to the oxidation-sensitive dye DCFH-DA. N2a cells were seeded at a density of 1 × 10^4 cells/well in a black-coated and clear bottom 96-well plate and neuron-differentiated as reported above. After 6 days, differentiating medium in N2a cells was replaced with pre-warmed phenol-red-free and serum-free DMEM containing 10 µM DCFH-DA and incubated for 30 min in the dark in a humidified 5% CO2 atmosphere at 37 °C. The 10 µM DCFH-DA loading solution was then removed, and the cells were washed twice with fresh phenol-red-free and serum-free DMEM to remove the redundant extracellular DCFH-DA probe. Subsequently, N2a cells were incubated with pre-warmed phenol-red free DMEM containing 1% FBS as an untreated control and with solutions dissolved in phenol-red free DMEM containing 1% FBS of Fer-Ger (1, 5, or 10 µM) or 100 µM ascorbic acid (AA, as an established antioxidant positive control) and incubated for 1 h in a humidified 5% CO2 atmosphere at 37 °C. After this time, 100 µM H2O2 was added in the absence or presence of 1, 5 or 10 µM Fer-Ger or 100 µM AA, and the fluorescence intensity was measured at an excitation wavelength of 485 nm and at an emission wavelength of 530 nm, monitoring the oxidation of DCFH to DCF by the intracellular ROS by running the kinetic over 75 min in a fluorescence microplate reader (VICTOR^3TM 1420 Multilabel counter, PerkinElmer, Milan, Italy). Results were represented as a percentage of intracellular ROS production (100% of control) resulting from the mean values ± SEM of sextuplicate wells over time.

In the case of `COc1cc(/C=C/C(=O)O)ccc1O` [Fer, ferulic acid], the drug loading [1] is given as 0.38 % w/w, the “encapsulation efficiency (EE)” value [1] is given as “about 14%” and the in vivo half-lives [2] is given as ≤ 30 min.
For `COc1cc(C=CC(=O)Oc2ccc(C=CC(=O)O)cc2OC)ccc1O` [Fer-Fer], the amount hydrolyzed [3] is listed as “about 50%”.
For `COC(=O)/C=C/c1ccc(OC(=O)/C=C/c2ccc(O)c(OC)c2)c(OC)c1` [Fer-Fer-Me], the half-life of hydrolysis [3] is given as “about 14 min”, the drug loading [1] is given as 0.49 % w/w and the “encapsulation efficiency (EE)” value [1] is given as “about 19%”.
For `Cc1cn([C@H]2C[C@H](N=[N+]=[N-])[C@@H](COC(=O)CC[C@@H](C)[C@H]3CC[C@H]4[C@@H]5[C@@H](O)C[C@@H]6C[C@H](O)CC[C@]6(C)[C@H]5CC[C@]34C)O2)c(=O)[nH]c1=O` [UDCA-AZT], the hydrolysis rate ([4]; ref our previous results) is given as “the same hydrolysis rate as Fer-Ger”, the half-life of hydrolysis [3] is given as “about 7 min” and the drug loading [1] is given as 0.57 % w/w. For the same molecule, the “encapsulation efficiency (EE)” value [1] was “about 26%”.
In the case of `CC(C)=CCC/C(C)=C/CO` [Ger, geraniol], the in vivo half-lives [2] is given as ≤ 30 min and the “Log P” value [5] is given as 3.56.
In the case of `CC(C)=CCCC(C)=CCOC(=O)CCC(C)C1CCC2C3C(O)CC4CC(O)CCC4(C)C3CCC12C` (stereo not shown) [GER-UDCA], the half-life of hydrolysis [4] is given as “higher than 30 min” and the amount hydrolyzed [3] is given as “about 30%”.
For `COC(=O)/C=C/c1ccc(O)c(OC)c1` [Fer-Me], the hydrolysis [3] is listed as “total absence of hydrolysis processes”, the drug loading [1] is listed as 0.72 % w/w and the “encapsulation efficiency (EE)” value [1] is listed as “about 28%”.
For `OO` [H2O2, hydrogen peroxide, reference compound], the “reduction of cell viability compared to untreated cells” value (differentiated N2a cells [6]) was 74% and the “effect on DCF fluorescence (ROS production)” value (differentiated N2a cells [7]; 100 µM H2O2, 75 min observation) was “significantly and time-dependently increased DCF fluorescence”.
With `O=C1O[C@H]([C@@H](O)CO)C(O)=C1O` [ascorbic acid] the “effect on basal ROS production” value (differentiated N2a cells [7]; 100 µM ascorbic acid alone) was “without by itself modifying basal ROS production” and the “effect on H2O2-induced ROS production” value (differentiated N2a cells [7]; 100 µM ascorbic acid with 100 µM H2O2) was “completely prevented the H2O2-induced ROS production”.
